# “And” between values parts separate entries of the source, which are not always exact repeats. Equal values may be shown once. Read-outs that look alike come from different tables or passages of the source.
# How the values were obtained:
# [1] = Cell viability assay in macrophage RAW264.7 cells (MTT); type: cell-based; conditions: mouse, read-out: % cell viability ± SD
# Protocol: RAW264.7 cells were seeded in 96-well cell culture plates at a density of 1×10^4 cells per well and incubated overnight at 37° C. with 5% CO2. Next day, the cells were treated with CBD or its derivatives at 5 μM and/or 10 μM concentration for 24 hrs. The MTT dye (2.5 mg/ml, 20 μL) was added to each well 4 hrs before termination (Molecules. 2022, 27, 8068). After 4 hrs of incubation with MTT, the supernatant was discarded, and the formazan crystals were dissolved by adding 100 μL DMSO. The absorbance was recorded at 540 nm on microplate reader (Tecan Infinite Pro).
# [2] = Cell viability assay in differentiated neuronal cells (MTT), N2A; type: cell-based; conditions: mouse, read-out: % Cell viability ± SD, N2A
# From the text: (§1) In the present disclosure outlined herein, a focused library of cannabidiol analogues were studied for possible neuro-protective potential employing cell line-based stress model systems which mimic the biological stress conditions in vitro (J Cell Biochem., 2018, 119(8), 6482-6491).
# (§2) Human neuroblastoma cells (SHSY5Y) and mouse neuroblastoma cells (N2A) were procured from American Type Culture Collection (ATCC). SHSY5Y cell cultures were maintained in DMEM F12 (Invitrogen) whereas N2A were cultured in DMEM (Invitrogen) with 10% Fetal Bovine Serum (Gibco) medium, subjected to differentiation to acquire neuronal morphology (employing differentiation media DMEM-F12, 3-5% FBS, (For differentiation, low concentration of FBS was used) and 50 μM retinoic acid). Differentiated cells were later seeded into 96 well plates, at a density of 1×10^4 before being incubated for 48 hrs with the synthesized library. The exhausted culture media was substituted with new culture media containing 0.5 mg/ml MTT dye. Eventually, the OD at 490 nm excitation was measured using a 96-well plate reader. The proportion of viable cells was determined as percentage of absorbance of untreated cultures relative to control.
# [3] = Cell viability assay in differentiated neuronal cells (MTT), SHSY5Y; type: cell-based; conditions: human, read-out: % Cell viability ± SD, SHSY5Y
# From the text: as §1, §2
# [4] = test system: nitric oxide (NO) production in RAW264.7 macrophages; experiment: In vitro anti-inflammatory activity: nitric oxide production (Griess) in LPS-exposed RAW264.7 macrophages; type: cell-based, mouse; conditions: LPS 24 hrs
# Protocol: Measurement of Nitric oxide: RAW264.7 macrophages were seeded in 96-well plates with a density of 0.5×10^5 cells/well and incubated overnight at 37° C. in a 5% CO2 atmosphere. The cells were treated with different concentration of CBD and its analogues and exposed to LPS for 24 hrs. For nitric oxide (NO) determination, the cell culture supernatant was taken and mixed with equal volume of Griess reagent in another 96 well plate at room temperature (Biomed Pharmacother., 2017, 92, 175-186). The absorbance was measured at 540 nm. The final calculations were determined on a NaNO2 standard curve.
# [5] = test system: TrkB stable cells SHSY5Y; experiment: Cytoprotective effect in TrkB stable cells SHSY5Y, 96 hrs; type: cell-based, human; conditions: Homo sapiens, SH-SY5Y, 96 h
# Protocol: In another experiment, the cytoprotective effect of A1 as well as parent molecule B1 was determined in TrkB stable cells SHSY5Y.
# [6] = test system: p-AKT 473; experiment: Survival pathway protein expression by western blotting in SHSY5Y; type: cell-based, human; conditions: for Relative Protein Expression PAKT 473: 6 hrs
# Protocol: (§3) Here, A1 was tested to find its role in eliciting survival pathway proteins in differentiated human neuroblastoma cells in concentration and time dependent manner.
# To investigate the effect of A1 on the survival proteins, […] of survival proteins, including p-Erk 44/42, p-AKT 473, Anti BDNF, and p TrkB 816 and p TrKB 515 by western blotting.
# [7] = test system: depression mice model; experiment: In vivo corticosterone induced depression model: Tail Suspension Test (TST); design: species or system mouse (male C57)
# Protocol: A1 (20 mg/kg, oral) dissolved in normal saline was given for 3 consecutive weeks following corticosteroid stress. The sucrose preference test was employed, tail suspension test, and forced swim test to evaluate behavioral distress.
# Tail Suspension Test (TST) is a behavioral test employed to assess perturbations expected to influence depression like phenotypes. TST is grounded on the reflection that the extent of immobility is allied with depressing phenotype of mice overturned by antidepressants. Mice were positioned 2 cm from their tail tips and 5 cm above the ground suspending the tails using adhesive tape for the free movement (Acta Neuropathol Commun., 2016, 4(1), 108).
# The contemporary immobility was alluded to as interruption in motion, where a blind assessor evaluates the disappointed aspect of display before scoring it.
# [8] = test system: p-Erk 44/42; experiment: Survival pathway protein expression by western blotting in SHSY5Y; type: cell-based, human; conditions: Cort. 400 μM, 6 hrs
# [9] = test system: depression mice model; experiment: In vivo corticosterone induced depression model: Forced Swim Test; design: species or system mouse (male C57)
# Protocol: (§4) In vivo efficacy (ameliorates behavioral despair) of A1 in corticosterone induced model of stress (J. Neurochem., 2018 146, 722 734). […] A1 (20 mg/kg, oral) dissolved in normal saline was given for 3 consecutive weeks following corticosteroid stress. The sucrose preference test was employed, tail suspension test, and forced swim test to evaluate behavioral distress. We noticed that A1 can resurrect mice in stressful situations. […]
# The forced swim test was employed to evaluate behavioral melancholy in depressed subjects. Each animal was individually conditioned in a glass cylinder 20 cm long, 10 cm deep and 14 cm radius of curvature. After being submerged in water for 5 mins, the mice's cumulative stationary episode, struggle in water, and eventual floating condition were evaluated. The duration for which the animals were motionless while attempting to hold both of their front limbs still was calculated by interpreting the visualizations portraying behavioral despair (Front Behav Neurosci., 2018, 12, 42).
# [10] = test system: p-Erk 44/42; experiment: Survival pathway protein expression by western blotting in SHSY5Y; type: cell-based, human; conditions: for Relative Protein Expression p ERK 44/42: 6 hrs
# Protocol: as §3
# (§5) To investigate the effect of A1 on the survival proteins, SHSY5Y cell cultures were treated with different concentrations for 6 hrs and analyzed for the expression of survival proteins, including p-Erk 44/42, p-AKT 473, Anti BDNF, and p TrkB 816 and p TrKB 515 by western blotting.
# [11] = test system: p TrkB 816; experiment: as above; type: cell-based, human; conditions: for Relative Protein Expression p TrkB 816: 6 hrs
# Protocol: as §3, §5
# [12] = test system: Anti BDNF; experiment: as above; type: cell-based, human; conditions: for Relative Protein Expression Anti BDNF: 6 hrs
# Protocol: as §3, §5
# [13] = test system: p TrkB 515; experiment: as above; type: cell-based, human; conditions: for Relative Protein Expression p TrkB 515: 6 hrs
# Protocol: as §3, §5
# [14] = In vivo corticosterone induced depression model: effect on body weight; design: species or system mouse (male C57); conditions: 21 days
# Protocol: as §4
# [15] = test system: Anti BDNF; experiment: Survival pathway protein expression by western blotting in SHSY5Y; type: cell-based, human; conditions: Cort. 400 μM, 6 hrs
# [16] = test system: depression mice model; experiment: In vivo corticosterone induced depression model: sucrose preference test; design: species or system mouse (male C57); conditions: 2% sucrose, 21 days
# Protocol: as §4
# Sucrose consumption was employed to evaluate anhedonia, a core hallmark of depression in mice. The animals were allowed unfettered access to both identical bottles, one containing water while the other contained a 2% solution of sucrose, for 21 days.
# The below equation was later employed to determine water and sugar consumed by mice:
# Sucrose Preference=Sucrose consumed[…]/Total fluid intake.
# [17] = test system: p TrkB 515; experiment: Survival pathway protein expression by western blotting in SHSY5Y; type: cell-based, human; conditions: DHF/Cort., 6 hrs
# [18] = test system: differentiated SHSY5Y cell cultures; experiment: Neuroprotective potential in differentiated SHSY5Y after 96 hrs, concentration series with and without corticosterone; type: cell-based, human; conditions: DHF 5 nM + Cort 400 μM, 96 hrs
# From the text: Furthermore, A1 intervention in presence of corticosterone evidenced neuroprotective effect against corticosterone induced impairment and cell death.
# [19] = test system: differentiated SHSY5Y cell cultures; experiment: as above; type: cell-based, human; conditions: DHF 5 nM, without Cort, 96 hrs
# [20] = test system: p TrkB 816; experiment: Survival pathway protein expression by western blotting in SHSY5Y; type: cell-based, human; conditions: DHF/Cort., 6 hrs
# [21] = Cort. alone, listed as corticosterone
# [22] = without Cort., A1 20 mg/kg, fluoxetine 18 mg/kg
structure (smiles),measurement,setting,value
"C=C(C)[C@@H]1CCC(C)=C[C@H]1c1c(O)cc(CCCCC)cc1O [B1, cannabidiol]","viability at 24 h, 5 µM","[1]; RAW264.7, 5 μM",95.5 ± 1.5%
same,"viability at 24 h, 10 µM","[1]; RAW264.7, 10 μM",91 ± 1.6%
same,"viability at 48 h, 20 µM",[2],107 ± 1.53%
same,"viability at 48 h, 20 µM",[3],108 ± 1.13%
same,inhibition at 5 µM,"[4]; Mus musculus, RAW264.7, 5 μM, read-out: % NO Inhibition ± SD",24.3 ± 3.2%
same,inhibition at 10 µM,"[4]; Mus musculus, RAW264.7, 10 μM, read-out: % NO Inhibition ± SD",38.3 ± 3.7%
same,production of NO (in words),[4]; pre-treated,decreased
same,viability at 20 µM,"[5]; read-out: % Cell viability ± SD, test compound 20 μM + Cort. 400 μM, 96 hrs",86.7 ± 1.16%
same,viability at 20 µM,"[5]; read-out: % Cell viability ± SD, test compound alone, 20 μM, 96 hrs",102 ± 1.06%
"C[C@]12C[C@H](O)[C@H]3[C@@H](CCC4=CC(=O)CC[C@@]43C)[C@@H]1CC[C@@H]2C(=O)CO [Cort., corticosterone, reference compound]",Relative Protein Expression PAKT 473,[6]; Cort. 400 μM,0.01
same,p-AKT 473 level (in words),[6]; after corticosterone insult,decrease
same,% Immobility (sec) ± SD (dead time),[7]; Cort. alone,52.32 ± 9.96 s
same,% Latency to immobility (sec) ± SD,[7]; Cort. alone,6.97 ± 4.52 s
same,% Immobility (sec) ± SD (dead time),[7]; [21],52.32 ± 9.96 s
same,% Latency to immobility (sec) ± SD,[7]; [21],6.97 ± 4.52 s
same,Relative Protein Expression p ERK 44/42,[8],0.36
same,% Immobility (sec) ± SD (dead time),[9]; Cort. alone 35 μg/ml,67.15 ± 12.32 s
same,% Latency to immobility (sec) ± SD,[9]; Cort. alone 35 μg/ml,16.14 ± 5.68 s
same,p-Erk 44/42 level (in words),[10]; after corticosterone insult,decrease
same,Relative Protein Expression p TrkB 816,[11]; Cort. 400 μM,0.36
same,p TrkB 816 level (in words),[11]; after corticosterone insult,decrease
same,anti BDNF level (in words),[12]; after corticosterone insult,decrease
same,Relative Protein Expression p TrkB 515,[13]; Cort. 400 μM,0.15
same,p TrkB 515 level (in words),[13]; after corticosterone insult,decrease
same,Weight (g) ± SD,"[14]; Cort. alone 35 μg/ml, negative control",29.57 ± 3.90 g
same,Weight (g) ± SD,"[14]; Cort. alone 35 μg/ml, negative control, listed as corticosterone",27.40 ± 1.91 g
same,Relative Protein Expression Anti BDNF,[15],0.10
same,% Sucrose consumption (ml) ± SD,"[16]; Cort. alone, negative control",43.50 ± 3.35%
same,% Sucrose consumption (ml) ± SD,"[16]; Cort. alone, negative control, listed as corticosterone",43.50±3.35%
"O=c1cc(-c2ccccc2)oc2c(O)c(O)ccc12 [DHF, reference compound]",Relative Protein Expression PAKT 473,[6]; DHF 5 nM,1.42
same,Relative Protein Expression PAKT 473,[6]; DHF/Cort.,0.96
same,Relative Protein Expression p TrkB 515,[17],2.11
same,Relative Protein Expression p ERK 44/42,[10]; DHF 5 nM,5.28
same,Relative Protein Expression p ERK 44/42,[10]; DHF/Cort.,5.00
same,Relative Protein Expression p TrkB 816,[11]; DHF 5 nM,1.55
same,Relative Protein Expression Anti BDNF,[12]; DHF 5 nM,1.03
same,Relative Protein Expression Anti BDNF,[12]; DHF/Cort.,0.53
same,Relative Protein Expression p TrkB 515,[13]; DHF 5 nM,2.43
same,Cell viability,[18],104.3
same,Cell viability,[19],113.7
same,Relative Protein Expression p TrkB 816,[20],0.71
CNCCC(Oc1ccc(C(F)(F)F)cc1)c1ccccc1 (stereo not drawn) [Fluoxetine],% Latency to immobility (sec) ± SD,"[7]; with Cort. 35 μg/ml, A1 20 mg/kg, fluoxetine 18 mg/kg",34.79 ± 6.38 s
same,% Latency to immobility (sec) ± SD,"[7]; with Cort. 35 μg/ml, A1 20 mg/kg, fluoxetine 18 mg/kg, listed as fluoxetine",34.79 ± 6.38 s
same,% Immobility (sec) ± SD (dead time),[7]; [22],19.61 ± 7.90 s and 19.61 s
same,% Latency to immobility (sec) ± SD,[7]; [22],49.51 ± 7.84 s and 49.51 ± 7.82 s
same,% Immobility (sec) ± SD (dead time),[9]; with Cort.,47.84 ± 10.33 s
same,% Latency to immobility (sec) ± SD,[9]; with Cort.,34.06 ± 11.21 s
same,% Immobility (sec) ± SD (dead time),"[9]; with Cort., listed as fluoxetine",47.84 ± 10.33 s
same,% Immobility (sec) ± SD (dead time),[9]; without Cort.,22.39 ± 4.91 s
same,% Latency to immobility (sec) ± SD,[9]; without Cort.,55.34 ± 15.71 s
same,Weight (g) ± SD,"[14]; with Cort. 35 μg/ml, A1 20 mg/kg oral, fluoxetine 18 mg/kg",38 ± 2.16 g
same,Weight (g) ± SD,"[14]; without Cort., A1 20 mg/kg oral, fluoxetine 18 mg/kg",40.42 ± 2.25 g
same,% Sucrose consumption (ml) ± SD,[16]; with Cort.,72.39 ± 2.69%
same,% Sucrose consumption (ml) ± SD,[16]; without Cort.,82.10 ± 0.29%

# Reference: US20260315499A1, “2'- {HETEROCYCLYL (ARYL/ALKYL) METHYL} - CANNABIDIOL COMPOUNDS AND PROCESS FOR PREPARATION THEREOF” (COUNCIL OF SCIENTIFIC & INDUSTRIAL RESEARCH, priority 2023, published 2026)
